{"source": "paper PMC10707724", "about": "“Dual Effects of 3-epi-betulin from Daphniphyllum glaucescens in Suppressing SARS-CoV-2-Induced Inflammation and Inhibiting Virus Entry” (International Journal of Molecular Sciences, 2023)", "format_in_all_cases": "cell-based", "key": {"[1]": {"system": "SARS-CoV-2 Omicron (BA.1)", "experiment": "microbe, parasite or virus in culture", "settings": "Omicron (BA.1), compared with the other variants"}, "SARS-CoV-2 SEMpv (N501Y)": {"system": "SARS-CoV-2 SEMpv (N501Y)", "settings": "read-out: EC50, pseudovirus entry"}, "SARS-CoV-2 SEMpv (D614G)": {"system": "SARS-CoV-2 SEMpv (D614G)", "settings": "read-out: EC50, pseudovirus entry"}}, "data": [{"smiles": "C=C(C)[C@@H]1CC[C@]2(CO)CC[C@]3(C)[C@H](CC[C@@H]4[C@@]5(C)CC[C@@H](O)C(C)(C)[C@@H]5CC[C@]43C)[C@@H]12", "note": "[Compound 5, 3-epi-Betulin]", "values": [{"measurement": "inhibition activity against variant, in words", "setting": "[1]", "value": "did not perform as well"}, {"measurement": "EC50", "setting": "SARS-CoV-2 SEMpv (N501Y)", "value": 13.1, "unit": "µM"}, {"measurement": "EC50", "setting": "SARS-CoV-2 SEMpv (D614G)", "value": 12.5, "unit": "µM"}]}]}
